Measurements reported in patent US20110081675A1, “Metabolic Biomarkers Of Drug-Induced Cardiotoxicity” (WISCONSIN ALUMNI RESEARCH FOUNDATION, priority 2009, published 2011).

Assays:
human cardiomyocytes = system: human cardiomyocytes
Method: The percentage of cell death, inherently and after drug treatment, was calculated by Trypan Blue staining (FIG. 2).
The doses for each compound were based upon published standards, equivalent to therapeutic circulating levels whenever possible (see Table 1).

[1] = system: human cardiomyocytes (Celprogen 36044-15at); test: LC-ESI-TOF-MS metabolomics of extracellular media of drug-treated human cardiomyocytes (Tables 2A-2C); assay type: cell-based; conditions: 15uM paclitaxel
Method: Data for statistical analysis were extracted from chromatograms using the Agilent Mass Hunter software (Product No. G3297AA, Agilent Technologies, Inc., Santa Clara, Calif.); it will be understood that alternative statistical analysis methods can be used. Masses were binned together if they were within 10 ppm and eluted within a 2 minutes retention time window. A binned mass was considered to be the same molecule across different LC-ESI-TOF-MS analyses (referred to herein as an “exact mass,” which will be understood to be ±10 ppm). Binning of the data is required for statistical analysis and comparison of masses across the entire experiment. If multiple peaks with the same mass at the same retention time within a single sample were detected by Mass Hunter, they were averaged to assist data analysis. Masses lacking a natural isotopic distribution or with an absolute height of less than 1000 were removed from the data prior to analysis. It would be understood that the results from this assay provide relative values that are assessed according to annotated values within 10 ppm to provide an identity for the molecular weight detected. Thus, a mass shift within 10 ppm is considered consistent with determining the identity of a specific cellular metabolite previously annotated due to differences in ionization source and instrumentation, e.g. between different experiments or using different instruments.
As used herein, a mass was considered to be the same across LC/ESI-TOF-MS runs using a simple algorithm that first sorts the data by mass and retention time. […] If a series of measurements fit this definition it was considered to be from the same compound. If either the mass or the retention time varied by more than the limits listed above it was considered to be a different compound and given a new unique designation.
The data from the most reproducible mass features was log base 2 transformed and median centered prior to statistical analysis. […] To test the null hypothesis a one way permutation based t-test assuming a normal approximation of the conditional distribution was used and implement using the Conditional Inference Procedures in a Permutation Test Framework (Coin) library, a contributed package of programming code. Statistics tests were performed without replacement of missing values decrease the degrees of freedom rather than imputing missing values. […] False discovery rates (FDR) were controlled using the Q value estimator (Storey et al., 2003, Proc Natl Acad. Sci., 100:9440-5) and implemented using the qvalue library in R (Dabney et al., 2003, qvalue: Q-value estimation for false discovery rate control. R package version 1.10.0., www.CRAN.R-project.org).
The extracellular media from treated and untreated cells was processed as described in Cezar et al., (2007, Stem Cells Development 16: 869-882, this publication is incorporated by reference), for extraction of low molecular weight molecules (<3 kD) for metabolomics analysis. Extracellular low molecular weight molecule preparations were separated by liquid chromatography followed by electrospray ionization time of flight (LC-ESI-TOF-MS) mass spectrometry for ionization and detection of the full spectra of low molecular weight molecules present in each sample. More specifically, the samples were separated using the ESI_Luna_HILIC—95_t—06OACN—16 min method (HILIC chromatography). Statistical differences were inferred by subsequent bioinformatics and in silico mapping of deisotoped ESI-TOF-MS mass features as described below (also provided in Cezar et al. (2007, id.)).
Briefly, ionization (100 m/z-1500 m/z) was acquired on an Agilent 6520 Accurate-Mass Q-TOF in extended dynamic range and positive mode. Mass features were generated using two independent methods. First MassHunter Qualitative Analysis was used to generate mass features using the Molecular Feature Extraction algorithm (MFE).

CC(=O)O[C@H]1C(=O)[C@@]2(C)[C@H]([C@H](OC(=O)c3ccccc3)[C@]3(O)C[C@H](OC(=O)[C@H](O)[C@@H](NC(=O)c4ccccc4)c4ccccc4)C(C)=C1C3(C)C)[C@]1(OC(C)=O)CO[C@@H]1C[C@@H]2O [Paclitaxel]
cell death (in words) (human cardiomyocytes): significantly higher cell death
pacfold ([1]; feature cpdID 36, neutral mass 101.1204, RT 0.720145, Triethylamine or Hexylamine): 1.413 fold
pacfold ([1]; feature cpdID 8902, neutral mass 276.1256, RT 8.733378, no hit): 2.728 fold
pacfold ([1]; feature cpdID 11232, neutral mass 311.1029, RT 7.400847, p-Glucosyloxymandelonitrile or (S)-4-Hydroxymandelonitrile beta-D-glucoside): 4.25 fold
pacfold ([1]; feature cpdID 14190, neutral mass 356.253, RT 1.103957, HMDB04239, 13,14-dihydro PGE1 or Prostaglandin F1alpha): 12.08 fold
pacfold ([1]; feature cpdID 15112, neutral mass 372.0557, RT […], no hit): −1.026 fold
pacfold ([1]; feature cpdID 16504, neutral mass 393.0913, RT 7.25538, no hit): 1.219 fold
pacfold ([1]; feature cpdID 16939, neutral mass 400.2796, RT 1.108613, 7-Ketocholesterol): 11.76 fold
pacfold ([1]; feature cpdID 17096, neutral mass 403.1776, RT 6.2306, no hit): −2.028 fold
pacfold ([1]; feature cpdID 19500, neutral mass 444.3034, RT 1.106333, […]-Dihydroxyvitamin D3-26,23-lactone): 17.08 fold
pacfold ([1]; feature cpdID 19704, neutral mass 448.1344, RT 7.184483, no hit): 2.694 fold
pacfold ([1]; feature cpdID 21926, neutral mass 488.3323, RT 1.106573, no hit): 8.467 fold
pacfold ([1]; feature cpdID 23129, neutral mass 515.181, RT 10.44297, no hit): 1.263 fold
pacfold ([1]; feature cpdID 23163, neutral mass 516.1241, RT 7.217222, Formononetin 7-O-glucoside-6″-O-malonate, Isochlorogenic acid b or 13-Dicaffeoylquinic acid): 2.288 fold
pacfold ([1]; feature cpdID 24142, neutral mass 538.2779, RT 0.783395, no hit): 1.807 fold
pacfold ([1]; feature cpdID 25445, neutral mass 572.1055, RT 7.089848, no hit): 1.259 fold
pacfold ([1]; feature cpdID 25601, neutral mass 576.3861, RT 1.10751, 3-Hexaprenyl-4-hydroxy-5-methoxybenzoic acid): 5.623 fold
pacfold ([1]; feature cpdID 27363, neutral mass 620.4117, RT 1.108317, no hit): 3.53 fold
pacfold ([1]; feature cpdID 28720, neutral mass 661.1924, RT 6.495524, no hit): 1.205 fold
pacfold ([1]; feature cpdID 29101, neutral mass 672.1828, RT 6.528464, no hit): 2.408 fold
pacfold ([1]; feature cpdID 29124, neutral mass 672.6836, RT 6.559082, no hit): 1.432 fold
pacfold ([1]; feature cpdID 29227, neutral mass 676.1781, RT 1.298314, no hit): −1.322 fold
pacfold ([1]; feature cpdID 31637, neutral mass 744.1091, RT 1.26415, no hit): −1.129 fold
pacfold ([1]; feature cpdID 37922, neutral mass 932.7613, RT 6.562271, no hit): 1.506 fold
pacfold ([1]; feature cpdID 40510, neutral mass 1040.322, RT 6.499979, no hit): 1.465 fold
pacfold ([1]; feature cpdID 42137, neutral mass 1122.172, RT 1.256606, no hit): −2.322 fold
pacfold ([1]; feature cpdID 45209, neutral mass 1300.402, RT 6.501484, no hit): 1.771 fold
pacfold ([1]; feature cpdID 45486, neutral mass 1322.385, RT 6.518707, no hit): 1.836 fold
